Values of other authors, collected in patent publication US5837685A (priority 1996, dated 1998).

Assays:
[1] = tested on: Candida
[2] = tested on: patients; conditions: some impairment of renal function regardless of dosage

For C[C@@H]1[C@H](O)[C@@H](C)/C=C/C=C/C=C/C=C/C=C/C=C/C=C/[C@H](O[C@@H]2O[C@H](C)[C@@H](O)[C@H](N)[C@@H]2O)C[C@@H]2O[C@](O)(C[C@@H](O)C[C@@H](O)[C@H](O)CC[C@@H](O)C[C@@H](O)CC(=O)O[C@H]1C)C[C@H](O)[C@H]2C(=O)O [Amphotericin B], the “active in vitro at concentrations of” value [1] is given as 0.01 to 2 µg/mL and the toxicity [2] is given as “highly toxic”.
